This assay has as its target T1, MDM2 (residues 25-109) (Homo sapiens, UniProt Q00987).
T1 construct: MDM2 (residues 25-109) with an N-terminal 6×His-yBBr-TEV tag was recombinantly expressed in E. coli; made in house; host or cells: E. coli BL21 CodonPlus
Description: SPR binding to immobilized biotinylated MDM2 25-109 (Biacore 8K). The protocol:
SPR experiments were performed on a Biacore 8K (Cytiva) instrument at 25° C. in 1×HBS-P+ buffer (Cytiva) with 1% DMSO. A SA Series S sensor chip was docked and pre-conditioned with three injections of 50 mM NaOH/1 M NaCl to remove unbound streptavidin from the surface. Biotinylated MDM2^25-109 were diluted to 2 μg/mL in running buffer and immobilized to channels 1 through 8 at 5 μL/min for 71 sec for a final immobilization level of ˜390 RU. Peptides were diluted to 5 μM in running buffer then serially diluted 2-fold for a total of seven concentrations with one blank (7-point two-fold peptide dilution series with top concentration=5 μM and bottom concentration=78 nM). Compounds were injected over the immobilized and reference surfaces at 30 μL/min for 60 sec and then allowed to dissociate for 180 sec without surface regeneration (N=1). Data was analyzed using Biacore Insight Evaluation software (Cytiva). Sensorgrams were double referenced, with most of them fitted to a 1:1 steady state affinity model, with a few fitted with both steady state affinity model and kinetics model.
MDM2 expression: MDM2 (residues 25-109) with an N-terminal 6×His-yBBr-TEV tag was recombinantly expressed in E. coli BL21 CodonPlus cells (Agilent) from pET-derived expression vectors (Novagen) (“6×His” disclosed as SEQ ID NO: 13). The cells were induced at OD600=0.6 with 1 mM isopropyl β-D-1-thiogalactopyranoside (IPTG) for 4 hours at 37° C., then harvested and resuspended in 25 mM Tris-HCl pH 7.5, 300 mM NaCl, 10% glycerol, 1 mM PMSF. For purification, the pellet was lysed with a tip sonicator, and pelleted at 22,000×g for 30 minutes at 4° C. The pellets were washed with 20 mM Tris-HCl pH 8.0, 150 mM NaCl, 1 M urea, 1.0% triton X-100 three times, and the inclusion body was dissolved in 20 mM Tris-HCl pH 8.0, 150 mM NaCl, 8 M urea, and 2 mM ß-mercaptoethanol (ß-me). The supernatant was purified with Ni-NTA resin (Qiagen), eluting with 20 mM Tris-HCl pH 8.0, 150 mM NaCl, 8 M urea, 2 mM ß-me, and 250 mM imidazole. Protein elutes were diluted to ˜0.1 mg/mL and dialyzed into buffers containing 10 mM Tris-HCl pH 8.0, 150 mM NaCl, 2 mM ß-me, with 4, 2, 1, or 0 M urea, at 4° C. for 8 hours for each urea gradient. Urea-free proteins were concentrated with Amicon spin filters (Millipore Sigma) to ˜1 mg/mL and biotinylated via the yBBr reaction according to reported procedures (e.g., reported in Yin, J. et al. Genetically encoded short peptide tag for versatile protein labeling by Sfp phosphopantetheinyl transferase. Proceedings of the National Academy of Sciences 102, 15815-15820 (2005)). Biotinylated proteins were pooled, concentrated, and loaded onto a Superdex™ 10/300 75 pg (Cytiva) SEC column and eluted in 20 mM HEPES pH 7.0, 200 mM NaCl, 5% glycerol, 0.5 mM tris(2-carboxyethyl) phosphine (TCEP). Fractions containing pure protein were collected, pooled, concentrated to ˜1 mg/mL and stored at −80° C. In some embodiments, such MDM2 preparation were utilized in biochemical assays.
(In general: Surface plasmon resonance follows binding to a sensor surface in real time, without labels.)

SMILES strings stand for the structures. Like-named read-outs stand apart in the source and are kept apart here. *1 amine or outer side, *2 acyl side, *3 side chain or, on linkers, in order; H or OH if unused. Where a SMILES comes first, the peptide text is derived from it. Bridges are numbered along the chain shown (N, C = ends). [ ]: non-standard residue; d: D form. Phenylene(1,4-NHCOCH2)2 = O=C(C[*:1])Nc1ccc(NC(=O)C[*:2])cc1; dNle = CCCC[C@@H](N)C(=O)O

Usually Kd stands for a measure of binding affinity in units of concentration.

T1 sequence (Q00987 25-109): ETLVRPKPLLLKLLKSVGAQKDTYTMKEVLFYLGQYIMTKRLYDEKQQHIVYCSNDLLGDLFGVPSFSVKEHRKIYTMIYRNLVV

The compound `CCCC[C@H]1NC(=O)[C@@H](C)NC(=O)[C@@H](C)NC(=O)[C@@H](CCC(=O)O)NC(=O)[C@@H](CCCC)NC(=O)[C@H](NC(=O)[C@@H](CCC(=O)O)NC(=O)[C@@H](Cc2ccc(O)cc2)NC(=O)[C@@H](Cc2c[nH]c3ccccc23)NC(=O)[C@@H](C)NC(=O)[C@H]2CCCN2C(=O)[C@@H](CC(=O)O)NC(C)=O)CSCC(=O)Nc2ccc(cc2)NC(=O)CSC[C@H](C(=O)N[C@H](CCC(N)=O)C(=O)N[C@H](CCC(N)=O)C(=O)N[C@@H](C(N)=O)C(C)C)NC(=O)[C@@H](CCCC)NC1=O` [H103, Ac-dpawyecm*eaam*m*cqqv-NH2] (Ac-[dD][dP][dA][dW][dY][dE][dC][dNle][dE][dA][dA][dNle][dNle][dC][dQ][dQ][dV]-NH2; linker 7-14 via Phenylene(1,4-NHCOCH2)2) displayed a Kd of 0.88 µM. On the same count and under the same terms, the same measure for `CCCC[C@H]1NC(=O)[C@@H](C)NC(=O)[C@@H](C)NC(=O)[C@@H](CCCC)NC(=O)[C@@H](C(C)C)NC(=O)[C@H](NC(=O)[C@@H](CCC(N)=O)NC(=O)[C@@H](Cc2c[nH]c3ccccc23)NC(=O)[C@@H](CO)NC(=O)[C@@H](C)NC(=O)[C@H]2CCCN2C(=O)[C@@H](CC(=O)O)NC(C)=O)CSCC(=O)Nc2ccc(cc2)NC(=O)CSC[C@H](C(=O)N[C@@H](C(=O)N[C@H](CC(C)C)C(=O)N[C@H](CC(=O)O)C(N)=O)C(C)C)NC(=O)[C@@H](CC(=O)O)NC1=O` [H109, Ac-dpaswqcvm*aam*dcvld-NH2] (Ac-[dD][dP][dA][dS][dW][dQ][dC][dV][dNle][dA][dA][dNle][dD][dC][dV][dL][dD]-NH2; linker 7-14 via Phenylene(1,4-NHCOCH2)2): 2.4 µM; for `CCCC[C@H]1NC(=O)[C@@H](CC(=O)O)NC(=O)[C@@H](C)NC(=O)[C@@H](C)NC(=O)[C@@H](CC(C)C)NC(=O)[C@@H](CC(N)=O)NC(=O)[C@H](NC(=O)[C@@H](CCC(=O)O)NC(=O)[C@H](NC(=O)[C@@H](CC(C)C)NC(=O)[C@@H](C)NC(=O)[C@H]2CCCN2C(=O)[C@@H](CC(=O)O)NC(C)=O)C(C)C)CSCC(=O)Nc2ccc(cc2)NC(=O)CSC[C@H](C(=O)N[C@H](Cc2c[nH]cn2)C(=O)N[C@H](Cc2ccccc2)C(=O)N[C@H](Cc2ccc(O)cc2)C(N)=O)NC1=O` [H104, Ac-dpalvecnlaadm*chfy-NH2] (Ac-[dD][dP][dA][dL][dV][dE][dC][dN][dL][dA][dA][dD][dNle][dC][dH][dF][dY]-NH2; linker 7-14 via Phenylene(1,4-NHCOCH2)2): 1.8 µM.

`CC(=O)N[C@H](CC(=O)O)C(=O)N1CCC[C@@H]1C(=O)N[C@H](C)C(=O)N[C@H](CO)C(=O)N[C@H](CCCNC(=N)N)C(=O)N[C@H](CC(N)=O)C(=O)N[C@@H]1CSCC(=O)Nc2ccc(cc2)NC(=O)CSC[C@H](C(=O)N[C@H](CCC(=O)O)C(=O)N[C@H](Cc2ccc(O)cc2)C(=O)N[C@H](Cc2c[nH]c3ccccc23)C(N)=O)NC(=O)[C@@H](CC(C)C)NC(=O)[C@@H](Cc2c[nH]cn2)NC(=O)[C@@H](C)NC(=O)[C@@H](C)NC(=O)[C@@H](Cc2c[nH]c3ccccc23)NC(=O)[C@@H](CCC(N)=O)NC1=O` [H107, Ac-dpasrncqwaahlceyw-NH2] (Ac-[dD][dP][dA][dS][dR][dN][dC][dQ][dW][dA][dA][dH][dL][dC][dE][dY][dW]-NH2; linker 7-14 via Phenylene(1,4-NHCOCH2)2): the Kd (SPR, 25° C., 7-point two-fold dilution, top concentration 5 μM, N=1, read-out: Measured KD) came out at 1.1 µM. For `CCCC[C@@H](NC(=O)[C@@H](CCC(N)=O)NC(=O)[C@@H](CC(C)C)NC(=O)[C@H]1CSCC(=O)Nc2ccc(cc2)NC(=O)CSC[C@@H](NC(=O)[C@H](NC(=O)[C@@H](C)NC(=O)[C@@H](Cc2c[nH]c3ccccc23)NC(=O)[C@@H](C)NC(=O)[C@H]2CCCN2C(=O)[C@@H](CC(=O)O)NC(C)=O)[C@H](C)O)C(=O)N[C@H](CCCC)C(=O)N[C@H](CC(=O)O)C(=O)N[C@H](C)C(=O)N[C@H](C)C(=O)N[C@H](CC(C)C)C(=O)N[C@H](CC(N)=O)C(=O)N1)C(N)=O` [H106, Ac-dpawatcm*daalnclqm*- NH2] (Ac-[dD][dP][dA][dW][dA][dT][dC][dNle][dD][dA][dA][dL][dN][dC][dL][dQ][dNle]-NH2; linker 7-14 via Phenylene(1,4-NHCOCH2)2), the Kd was found to be 1.8 µM. Still for that read-out and setting: the same measure for `CC(=O)N[C@H](CC(=O)O)C(=O)N1CCC[C@@H]1C(=O)N[C@H](C)C(=O)N[C@H](Cc1c[nH]c2ccccc12)C(=O)N[C@H](CC(N)=O)C(=O)N[C@H](Cc1c[nH]cn1)C(=O)N[C@@H]1CSCC(=O)Nc2ccc(cc2)NC(=O)CSC[C@H](C(=O)N[C@H](CO)C(=O)N[C@H](CCC(=O)O)C(=O)N[C@@H](C(N)=O)C(C)C)NC(=O)[C@@H](C(C)C)NC(=O)[C@@H](Cc2ccccc2)NC(=O)[C@@H](C)NC(=O)[C@@H](C)NC(=O)[C@@H](Cc2ccc(O)cc2)NC(=O)[C@@H](CCC(=O)O)NC1=O` [H102, Ac-dpawnhceyaafvcsev-NH2] (Ac-[dD][dP][dA][dW][dN][dH][dC][dE][dY][dA][dA][dF][dV][dC][dS][dE][dV]-NH2; linker 7-14 via Phenylene(1,4-NHCOCH2)2): 2.7 µM.

The record behind these values is US20240391956A1, “STAPLED PEPTIDES AND METHODS THEREOF” (FOG PHARMACEUTICALS, INC., priority 2023, published 2024).
